Experimental data reported in patent US7914821B2, “Pharmaceutical composition for prevention and/or treatment of bone loss” (KO DA Pharmaceuticals Co., Ltd., priority 2008, dated 2011).

Columns and labels:
Format in all cases: cell-based, rat
BMP-2 gene = BMP-2 gene expression (RT-PCR); conditions: for BMP-2 mRNA level, dependence on concentration: 0.3, 1, 3, 10 μM, FIG. 9A; for BMP-2 mRNA level, dependence on treatment time: 1, 3, 6, 12 hrs, FIG. 9B
Experimental: (§1) Rat primary osteoblast was isolated from the parietal bone of gestation day 18 embryos of Sprague-Dawley rats. After being slaughtered, the embryo rats were obtained from the uteruses of the rats, and calvarium was isolated from the embryo rats. Parietal bone was cut from the calvarium and digested by 0.1% collagenase for 20 minutes to release the bone cells from the bone tissue. The digestion step was repeated five times. The collected bone cells were cultured in α-MEM containing 1% penicillin-streptomycin and 10% FBS in a humidified atmosphere of 5 percent carbon dioxide. When cells were attached and confluence, they were sub-cultured, which was called “passage 2 (P2)”. The passage was for analogizing. 2 to 5 passage cells were used for the experiments.
Bone cells were cultured in 6-well Plate and cultured with 0.3, 1, 3, and 10 μM of imperatorin and bergapten for 1, 3, 6, and 12 hrs, respectively. After treatment, the cells were lysed with TRIzol reagent at room temperature for 5 minutes, and then collected in a centrifuge tube. 0.5 ml of chloroform was added to the centrifuge tube. After the addition of chloroform, the centrifuge tube was well mixed, and centrifuged at 14000×g for 15 minutes at room temperature to obtain a supernatant. The supernatant was mixed with isopropanol (0.25 ml) and then centrifuged at 14000×g at room temperature for 15 minutes to obtain a precipitated RNA. RNA was washed with 75% alcohol, centrifuged at 14000×g for 10 minutes, and dried to give a RNA pellet. The RNA pellet was dissolved in diethyl pyrocarbonate (DEPC) solution and then quantitated by measurement of OD260/280. BMP-2 gene expression (BMP-2 mRNA level) was detected by RT-PCR using Supperscript™ III reverstranscriptase and […] (Applied Biosystems). The BMP-2 mRNA level in the control group which was treated with 0.1% DMSO was defined as 100%.

Bone cells [1] = experiment: Mineralization in bone cells (Alizarin red-S); conditions: for mineralization of bone cells: 0.3, 1, 3, 10 μM, 14 days, differentiation medium, FIGS. 8C-8D; for increase of mineralization: 'at least' figure
Experimental: as §1
Bone cells were cultured in 96-well Plate containing a differentiation medium (50 μg/ml vitamin C and 10 mM β-glycerophosphate) and treated with 0.3, 1, 3, and 10 μM of imperatorin and bergapten, respectively. The differentiation medium was refreshed every 3 days. 14 days after the cell culture, the bone cells were fixed with 75% ethanol for 30 minutes, and then treated with 40 mM Alizarin red-S at room temperature for 1 hr. After the addition of Alizarin red-S, 10% cetylpyridinium chloride was added, and then absorbance was measured at […]. The mineralization level in the control group which was treated with 0.1% DMSO was defined as 100%. Referring to FIGS. 8C-8D, imperatorin and bergapten both increased the mineralization of bone cells.

Bone cells [2] = experiment: Cell viability (MTT); conditions: 0.3, 1, 3, 10 μM, 48 hrs, FIG. 7A
Experimental: as §1
Bone cells were cultured in 96-well plate and treated with 0.3, 1, 3, and 10 μM of imperatorin and bergapten for 48 hrs, respectively. After treatment, the cells were reacted with MTT solution (0.5 mg/ml) at 37° C. for 30 minutes, lysed in 100 μl DMSO, and then absorbance was measured at […]. The cell viability in the control group which was treated with 0.1% DMSO was defined as 100%.

SMILES: COc1c2ccoc2cc2oc(=O)ccc12 [bergapten]
- BMP-2 mRNA level, dependence on concentration (BMP-2 gene): increased according to the increase of the concentration
- BMP-2 mRNA level, dependence on treatment time (BMP-2 gene): increased according to the increase of the treatment time
- mineralization of bone cells (Bone cells [1]): increased
- increase of mineralization (Bone cells [1]): ≥ 105.0%
- cell viability (Bone cells [2]): did not suppress

SMILES: CC(C)=CCOc1c2occc2cc2ccc(=O)oc12 [imperatorin]
- BMP-2 mRNA level, dependence on concentration (BMP-2 gene): increased according to the increase of the concentration
- BMP-2 mRNA level, dependence on treatment time (BMP-2 gene): increased according to the increase of the treatment time
- mineralization of bone cells (Bone cells [1]): increased
- increase of mineralization (Bone cells [1]): ≥ 110.0%
